According to ChEMBL document CHEMBL1151017, “The synthesis of N-aryl androsterone pyrazoles as aromatase inhibitors” (Bioorg Med Chem Lett, 1997):

biological target: T1, Aromatase (Homo sapiens, UniProt P11511); experiment: Inhibition of cytochrome P450 19A1 aromatase from human placental microsomes
T1 sequence (P11511 whole entry): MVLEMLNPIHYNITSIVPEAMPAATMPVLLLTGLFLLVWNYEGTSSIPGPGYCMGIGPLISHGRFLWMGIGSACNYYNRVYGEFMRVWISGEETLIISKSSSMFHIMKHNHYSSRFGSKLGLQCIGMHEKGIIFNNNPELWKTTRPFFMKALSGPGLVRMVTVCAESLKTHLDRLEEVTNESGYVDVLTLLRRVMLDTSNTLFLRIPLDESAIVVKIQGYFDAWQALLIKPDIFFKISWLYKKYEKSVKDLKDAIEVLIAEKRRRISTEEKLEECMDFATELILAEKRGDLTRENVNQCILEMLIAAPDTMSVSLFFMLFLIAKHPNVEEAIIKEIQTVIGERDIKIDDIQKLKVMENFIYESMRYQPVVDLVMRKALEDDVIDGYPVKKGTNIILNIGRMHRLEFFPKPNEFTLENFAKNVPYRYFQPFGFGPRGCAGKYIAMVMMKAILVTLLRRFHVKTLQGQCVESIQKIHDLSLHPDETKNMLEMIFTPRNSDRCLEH

`CC12CCC3C(Cc4c5c(nn4Cc4ccc([N+](=O)[O-])cc4)C(=O)CCC53C)C1CCC2=O` (configuration not stated) and `CC12CCC3C(Cc4nn(Cc5ccc([N+](=O)[O-])cc5)c5c4C3(C)CCC5=O)C1CCC2=O` (configuration not stated) are within 1.5-fold of each other in IC50: 490 nM for the first, 658 nM for the second.

`CC12CCC3C(Cc4c5c(nn4Cc4ccccc4)C(=O)CCC53C)C1CCC2=O` (configuration not stated) and `CC12CCC3C(Cc4nn(Cc5ccccc5)c5c4C3(C)CCC5=O)C1CCC2=O` (configuration not stated) are within 1.5-fold of each other in IC50: 245 nM for the first, 342 nM for the second.

Compared with `CC12CCC3C(Cc4[nH]nc5c4C3(C)CCC5=O)C1CCC2=O` (configuration not stated), `CC12CCC3C(Cc4c5c(nn4C/C=C/c4ccccc4)C(=O)CCC53C)C1CCC2=O` (configuration not stated) is 4-fold higher in IC50: 236 nM for the first, 950 nM for the second. The first is the more potent here.

biological target: T1, Aromatase; experiment: Inhibition of aromatase cytochrome P450 from human placental microsomes; 800-1000

`CC12CCC3C(Cc4nn(C/C=C/c5ccccc5)c5c4C3(C)CCC5=O)C1CCC2=O` (configuration not stated) showed an IC50 of 800 nM.
